{
  "source": "paper PMC3591469",
  "about": "(Bioorganic & medicinal chemistry letters, 2011)",
  "origin": "cited, not measured here",
  "test_system": "recombinant Brd4 protein derived from bacteria",
  "settings": "cell-permeable small molecule",
  "data": [
    {"compound": "Cc1sc2c(c1C)C(c1ccc(Cl)cc1)=N[C@@H](CC(=O)OC(C)(C)C)c1nnc(C)n1-2", "note": "[JQ1]", "values": [
      {"measurement": "inhibition of recombinant Brd4", "value": "selective and potent inhibitor"}
    ]}
  ]
}
